# Laboratory results as given in publication PMC6404510 (Neural Regeneration Research, 2019).
# B1: I^125-interferon-β1b (protein, UniProt P01574 22-187, looked up, variant C17S)
# Interferon beta: MSYNLLGFLQRSSNFQSQKLLWQLNGRLEYCLKDRMNFDIPEEIKQLQQFQKEDAALTIYEMLQNIFAIFRQDSSSTGWNETIVENLLANVYHQINHLKTVLEEKLEKEDFTRGKLMSSLHLKRYYGRILHYLKAKEYSHCAWTIVRVEILRNFYFINRLTGYLRN
# modifications: I-125 radiolabel
# Key:
# NeuN+ neurons = test: Fluorescence tracing of intranasal Alex546-Ins in rat brain sections; format: in vivo; details: rat brain sections after intranasal Alex546-Ins
# [1] = monkeys, intranasal administration; ref Thorne et al., 2008; cited from earlier work
Molecule,Cell type binding Alex546-Ins (NeuN double-immunostaining) (NeuN+ neurons),Time of earliest detection in CSF [1] [min]
Alexa Fluor 546-labeled insulin [Alex546-Ins],on the membrane of NeuN^+ neurons,–
B1,–,≤ 30
